Assay results reported in CN109134566A, “一种1/20水利巴韦林化合物” (Individual, priority 2017, dated 2019).

How the values were obtained:
Format in all cases: physicochemical
[1] = Accelerated stability of compressed tablets (试验例3 压片稳定性); conditions: round tablets 0.5 g/tablet, 40℃±2℃, 6 months, sampled at 0, 1, 2, 3, 6 months
[2] = Freeze-drying test, water before and after (试验例2 冷冻干燥试验); conditions: 0.25 g/vial, vacuum, -40℃, 24 h
[3] = Accelerated stability test of the bulk compound (试验例1 稳定性考察); conditions: 40℃±2℃, 6 months, sampled at 0, 1, 2, 3, 6 months

| SMILES | change in water content of compressed tablets (accelerated test) ([1]; 1/20水) | change in water content after freeze-drying ([2]; 1/20水) | change in water content (accelerated test) ([3]; 1/20水) | change in water content of compressed tablets (accelerated test) [1] | change in water content after freeze-drying [2] | change in water content (accelerated test) [3] |
| --- | --- | --- | --- | --- | --- | --- |
| NC(=O)c1ncn([C@@H]2O[C@H](CO)[C@@H](O)[C@H]2O)n1 [实施例1, 1/20水利巴韦林化合物] | 未发生明显变化 | 未发生明显变化 | 未发生明显变化 | – | – | – |
| NC(=O)c1ncn([C@@H]2O[C@H](CO)[C@@H](O)[C@H]2O)n1 [对比例1, 利巴韦林] | – | – | – | 明显降低 | 明显降低 | 明显降低 |
